Consider seven molecules from US10781215B2, “Heterobicyclic compounds useful as modulators of IL-12, IL-23 and/or IFNα responses” (BRISTOL-MYERS SQUIBB COMPANY, priority 2016, dated 2020).

As a reminder, the IC50 is the concentration at which inhibition is half-maximal. What is called EC50 is the concentration needed to bring the measured effect to its halfway point.

Experiment [1] has as its system IL-23 stimulated Kit225 T cells (STAT-dependent luciferase reporter). Briefly: Kit225 T cell assay, IL-23 stimulated STAT-dependent luciferase reporter. The class given is cell-based. The settings on record: 20 ng/mL human recombinant IL-23, 5-6 hours. The procedure: (§1) Kit225 T cells with a stably-integrated STAT-dependent luciferase reporter were plated in RPMI (Gibco) containing 10% heat-inactivated FBS (Gibco) and 100 U/mL PenStrep (Gibco). The cells were then stimulated with either 20 ng/mL human recombinant IL-23 or 200 U/mL human recombinant IFNα (PBL InterferonSource) for 5-6 hours. Luciferase expression was measured using the STEADY-GLO® Luciferase Assay System (Promega) according to the manufacturer's instructions. Inhibition data were calculated by comparison to no inhibitor control wells for 0% inhibition and non-stimulated control wells for 100% inhibition. Dose response curves were generated to determine the concentration required to inhibit 50% of cellular response (IC50) as derived by non-linear regression analysis.
Background: A reporter such as luciferase makes a cellular process visible.

Experiment [2] addresses T1, recombinant human His-tagged Tyk2 pseudokinase domain (His-TVMV-Tyk2, 575-869) (Homo sapiens, UniProt P29597).
T1 construct: made in house
Briefly: Probe displacement assay (HTRF format). As to conditions: fluorescein labeled probe, Tyk2 pseudokinase domain 0.5 nM. The class given is binding. The procedure:
To 10 μL 26 nM fluorescein labeled probe plus 0.2 nM anti-6×His-terbium labeled antibody (Medarex, labeled by Cisbio) in assay buffer (20 mM Hepes pH 7.5, 150 mM NaCl, 10 mM MgCl2, 2 mM DTT, 50 μg/mL BSA, and 0.015% Brij 35) was added 10 μL recombinant human His-tagged Tyk2 pseudokinase domain (His-TVMV-Tyk2, 575-869) to a final concentration of 0.5 nM. After 1 h at room temperature, the HTRF signal (ratio of fluorescence intensities at emission wavelengths for fluorescein acceptor at 520 nm and terbium donor at 495 nm) was measured on an Envision Plate Reader. Percent inhibition was calculated by comparison to a control without inhibitor and a control without protein. Dose response curves were generated to determine the concentration required for inhibiting 50% of the HTRF signal (EC50).
For orientation: TR-FRET usually uses a lanthanide donor and a delayed reading to cut background.

The test system of experiment [3] is IFNα stimulated Kit225 T cells (STAT-dependent luciferase reporter). Briefly: Kit225 T cell assay, IFNα stimulated STAT-dependent luciferase reporter. The class given is cell-based. As to conditions: 200 U/mL human recombinant IFNα, 5-6 hours. The procedure: as §1

T1 sequence (P29597 with tags, fused parts or gaps): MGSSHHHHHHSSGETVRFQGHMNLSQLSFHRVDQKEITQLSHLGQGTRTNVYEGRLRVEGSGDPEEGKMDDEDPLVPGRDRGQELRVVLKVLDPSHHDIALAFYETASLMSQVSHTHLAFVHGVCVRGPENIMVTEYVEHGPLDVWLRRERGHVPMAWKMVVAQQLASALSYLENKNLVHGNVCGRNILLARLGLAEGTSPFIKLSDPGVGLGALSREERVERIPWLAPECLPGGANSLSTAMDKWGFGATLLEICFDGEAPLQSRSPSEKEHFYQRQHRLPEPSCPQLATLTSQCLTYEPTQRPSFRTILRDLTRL

As to `Cc1cccc(Nc2cc(Nc3ncccc3S(C)(=O)=O)c3nc(C)[nH]c3n2)n1` [Example 49, 7-N-(3-methanesulfonylpyridin-2-yl)-2-methyl-5-N-(6-methylpyridin-2-yl)-3H-imidazo[4,5-b]pyridine-5,7-diamine], the values for the IC50 in experiment [1] and in experiment [3] were 0.107 µM and 0.098 µM, respectively. In addition, the 50% effective concentration (EC50) in experiment [2] was determined as 0.0007 µM.
For `Cc1cnc(Nc2cc(Nc3ncccc3S(C)(=O)=O)c3nc(C)[nH]c3n2)cn1` [Example 48, 7-N-(3-methanesulfonylpyridin-2-yl)-2-methyl-5-N-(5-methylpyrazin-2-yl)-3H-imidazo[4,5-b]pyridine-5,7-diamine], the IC50 in experiment [1] was determined as 0.742 µM; in experiment [3], 0.307 µM. Besides, in experiment [2], the EC50 was 0.0006 µM.
With `Cc1nc2c(Nc3ncccc3S(C)(=O)=O)cc(Nc3ccc(N4CCOCC4)cn3)nc2[nH]1` [Example 50, 7-N-(3-methanesulfonylpyridin-2-yl)-2-methyl-5-N-[5-(morpholin-4-yl)pyridin-2-yl]-3H-imidazo[4,5-b]pyridine-5,7-diamine], the IC50 stood at 0.367 µM in experiment [1] and 0.267 µM in experiment [3]. In experiment [2], the EC50 was determined as 0.0011 µM.
Taken in the same sequence, the figures for `COc1ccc(Nc2cc(Nc3ncccc3S(C)(=O)=O)c3nc(C)[nH]c3n2)nn1` [Example 45, 7-N-(3-methanesulfonylpyridin-2-yl)-5-N-(6-methoxypyridazin-3-yl)-2-methyl-3H-imidazo[4,5-b]pyridine-5,7-diamine] were 0.462 µM, 0.288 µM and 0.0012 µM.
Taken in the same sequence, the figures for `Cc1nc2c(Nc3ncccc3S(C)(=O)=O)cc(NC(=O)C3CC3)nc2[nH]1` [Example 47, N-{7-[(3-methanesulfonylpyridin-2-yl)amino]-2-methyl-3H-imidazo[4,5-b]pyridin-5-yl}cyclopropanecarboxamide] were 0.698 µM, 0.403 µM and 0.0004 µM.
In the case of `COc1ccc(Nc2cc(Nc3ncccc3S(C)(=O)=O)c3nc(C)[nH]c3n2)nc1` [Example 42, 7-N-(3-methanesulfonylpyridin-2-yl)-5-N-(5-methoxypyridin-2-yl)-2-methyl-3H-imidazo[4,5-b]pyridine-5,7-diamine], the IC50 in experiment [1] stood at 0.075 µM; in experiment [3], 0.067 µM. Also, in experiment [2], the concentration giving a half-maximal response (EC50) was determined as 0.0006 µM.
Taken in the same sequence, the figures for `Cc1nc2c(Nc3ncccc3S(C)(=O)=O)cc(Nc3ccc(F)cn3)nc2[nH]1` [Example 41, 5-N-(5-fluoropyridin-2-yl)-7-N-(3-methanesulfonylpyridin-2-yl)-2-methyl-3H-imidazo[4,5-b]pyridine-5,7-diamine] were 0.028 µM, 0.068 µM and 0.0004 µM.
